Reference: a melting point compilation (Tetko et al.; mined from patent text by program, amines drawn as free bases though some values may be those of a salt)

melting point | SMILES
50 to 51 °C | CCCOC1=Nc2ccc(Cl)cc2C(=CCCN)N1CCC
264 to 265 °C | CN1CCN(c2c(F)cc3c(=O)c(C(=O)O)cn(C4CC4)c3c2C#N)CC1
148 to 151 °C | CC1CCCN(CCNc2ccnc3cc(Cl)ccc23)C1 (racemic)
78 to 80 °C | Cc1sc2c(c1Br)C(=O)N(CCCCCl)CCC2
189 to 191 °C | CCCCCc1cc2c(nc(O)n2CCCNC(C)=O)c(N)n1
120 to 121 °C | O=C(O)CCCCCCc1cnc2ccccc2c1
128 to 129 °C | COC(=O)NC(=O)CC1=C(Cc2ccc3c(Br)cccc3c2)C(=O)CCC1
71 to 77 °C | CCCCn1c(CC)ccc1C(=O)c1cccc(N)c1
131 °C | CCOC(=O)NC(=NCCC(c1ccccc1)c1ccc(F)cc1)NCCCc1c[nH]cn1 (centres undefined)
135 to 138 °C | COC(=O)c1ccc(OCC2CC(=O)N(c3ccc(OCCn4ccnc4)cc3)C2)cc1 (centres undefined)
147 to 148 °C | COc1cc2ncnc(N3CCN(C(=S)NC4CCOC4=O)CC3)c2cc1OC (centres undefined)
103 to 105 °C | O=C(COc1cccnc1)NCCCCC1CCN(C(c2ccccc2)c2ccccc2)CC1
132 °C | CCCC(=O)C1=C(O)CC(c2c(C)c(C)c(C)c(C)c2S(C)(=O)=O)CC1=O (centres undefined)
289 to 291 °C | Cc1cc(-n2cc(-c3ccc(F)cc3)nc2C)cc2ccc(=O)[nH]c12
133 to 139 °C | O=C(O)c1nc2ccccc2nc1Cl
55 to 56 °C | COC(=O)c1cc2c(nc1C)C(CO)CCCC2 (centres undefined)
158 to 159 °C | O=C(Nc1cc(C(F)(F)F)ccc1O)Nc1ccccc1C(F)(F)F

melting point | SMILES
96 to 97 °C | CCCCS(=O)(=O)Nc1c(C)c(C)c2c(c1C)C(c1ccc(C(C)C)cc1)CO2 (centres undefined)
148 to 149 °C | CC(C)(C)OC(=O)c1ccc(N2CC(CO)OC2=O)cc1F (centres undefined)
137 to 140 °C | COC(=O)N1CCC[C@@H](OC)[C@@H]1CC(=O)Cn1cnc2ccc(C(F)(F)F)cc2c1=O (relative stereo)
93 to 94 °C | CCCCc1nn(-c2ccc(C(F)(F)F)cn2)cc1CCCO
11 °C | CN(CCCCCCCC(F)(F)C(F)(F)F)CCCCCC1Cc2cc(O)ccc2C2C(F)CC3(C)C(O)CCC3C12 (centres undefined)
203 to 205 °C | COc1cc(N)c(Cl)cc1C(=O)NCC1CCN(CCCCCC(=O)c2ccc(Cl)c(Cl)c2)CC1
82.1 to 83.4 °C | O=C(CCl)C1=NOC(c2c(F)cccc2F)C1 (centres undefined)
159 to 162 °C | CCC(C)=NNC(=O)c1cccc2nnsc12
113 to 114 °C | Cc1nn(C)cc1C(=O)NC(C#N)c1ccsc1 (centres undefined)
69.5 to 70 °C | CCCc1cc([N+](=O)[O-])cc(C=O)c1O
131 to 134 °C | CCN1c2ncccc2C(=O)Nc2c(C)cc(N3CCC(O)C3)nc21 (centres undefined)
95 to 97 °C | COc1ccc(-n2nc(CCN)cc2-c2ccc(Cl)cc2)cc1
79 to 80 °C | CCOC(=O)c1sc(SC)c2c1CCC(C=O)=C2Cl
127 to 129 °C | CCCCC1c2ccccc2-c2ccccc2N1S(=O)(=O)c1ccc(OC)cc1 (centres undefined)
183 to 186 °C | COC(=O)c1nc(Cl)c(F)c(NC(C)=O)c1Cl
268 to 270 °C | COc1cccc2c1c(S(N)(=O)=O)nn2C

The next lines start with the compound.

SMILES | melting point
O=[N+]([O-])c1cccc(S(=O)(=O)NCCc2ccncc2)c1 | 138 °C
Cc1cccc(C(C)(C)C)c1-n1sc(=O)n(Cc2ccccc2)c1=O | 89.8 °C
Clc1ccccc1-c1noc(-c2ccccc2Cl)n1 | 91 to 92 °C
COc1ccc(Cn2c(C(=O)O)c(-c3ccc4c(c3)OCO4)c3cc(OCC(=O)O)ccc32)c(OCC(=O)O)c1 | 203 to 205 °C
COc1ccc(S(=O)(=O)C2(C(=O)NO)CCCC2)cc1 | 89 to 91 °C
O=C1NC(=O)c2c1c(-c1cccc(Cl)c1Cl)cc1[nH]c3ccc(O)cc3c21 | 233 to 235 °C
Cc1nnc2n1-c1sc(CC(=O)O)cc1C(c1ccccc1Cl)=NC2C (centres undefined) | 222 to 225 °C
COc1ccccc1C(=O)Nc1ccccc1C(c1ccc(O)cc1)c1ccc(O)cc1 | 258 °C
CCc1[nH]n(C2CCCC2)c2nc(=S)[nH]c(=O)c1-2 | 248 to 250 °C
Cc1ccc(S(=O)(=O)OC[C@H]2CC[C@H](c3ccccc3)CC2)cc1 | 108 to 109 °C
Cc1nc(N2CCc3ccccc3CC2)c(C#N)c(=O)n1NCC(F)(F)F | 144 to 146 °C
CC(O)CCc1ccc(-c2ccccc2)cc1 (centres undefined) | 74 to 75 °C
Cc1cncc(COc2cccc(C(N)=O)c2)c1 | 152 to 154 °C
N#CCc1c[nH]c2ccc(CCS(N)(=O)=O)cc12 | 109 to 111 °C
Cn1c(C(=O)NN2CCCCC2)cc(-c2ccc(Cl)cc2Cl)c1-c1ccc(Cl)cc1 | 218 °C
Nc1cccc2c1ccn2S(=O)(=O)c1cccc2ccccc12 | 133 to 134 °C
N#CC1C(=O)c2ccccc2Nc2ccccc21 (centres undefined) | 195 to 197 °C
COC(=O)COc1cc2ccccc2c2c1c(C(=O)C(N)=O)c(C)n2Cc1cccc(-c2ccc(F)cc2)c1 | 157 to 159 °C
O=[N+]([O-])c1cc(Br)ccc1-c1ccccc1F | 42 to 45 °C
O=CN1CCC(C(=O)O)=Cc2cc(Br)ccc21 | 248 to 250 °C
O=S1(=O)CCN(Cc2ccc(Br)cn2)CC1 | 129 to 131 °C

SMILES | melting point
C=CCN1C(=C)C(=O)N[C@@H](Cc2ccccc2)C1=O | 102 to 110 °C
O=C(NCC(F)(F)F)c1ccccc1C(c1ccc(O)cc1)c1ccc(O)cc1 | 165 to 166 °C
CC(C)(C)OC(=O)N1CCS(=O)(=O)C1 | 106 to 107 °C
COc1ccc(/C=N/Nc2ccccc2)cc1OC1CCCC1 | 138 to 140 °C
CS(=O)(=O)c1cc(OC[C@@H](O)CN[C@H]2CC[C@H](c3ccc(C(=O)N4Cc5ccccc5C4)cc3)CC2)ccc1O | 110 °C
Cn1nc(O)cc1C(F)F | 115 to 119 °C
Cc1ccccc1C(=O)Nc1ccc(C(=O)N2Cc3ccnn3Cc3ccccc32)cc1 | 142 to 146 °C
CN(C(=O)c1ccc(-n2cccn2)cc1)C1CCN(C(=O)OC(C)(C)C)CC1 | 164 to 166 °C
C[C@@H]1CN(c2ccc(C(F)(F)F)nc2)C[C@H](C)N1CC(=O)N1CC=C(c2ccc3c(c2)OCCO3)CC1 | 200 to 201 °C
COc1ccc(N2CCN(C(=O)CC3CCc4ccccc43)CC2)cc1 (centres undefined) | 111 to 112 °C
COC(=O)NN(C(=O)Cl)c1cccc2c1OCC2 | 110 to 112 °C
Cn1cc(CO)c2c3c(c(-c4ccccc4Cl)cc21)C(=O)NC3=O | 270 to 274 °C
N#Cc1cccn(-c2cccnc2Cl)c1=O | 145 °C
COc1ccc2nc(-c3ccc(OC)c(F)c3)cc(C#N)c2c1 | 189 to 190 °C
COc1ccc(OC)c(Cc2cccc(N)c2)c1 | 81 to 84 °C
CC(=O)OC1C(N2CCCC2)CC2C3CCC4CC(O)C(N5CCOCC5)CC4(C)C3CCC21C (centres undefined) | 149 to 153 °C
Cc1nc(C)c(CN2CCN(C)CC2)c(-c2ccccc2OCc2ccc(Cl)cc2)n1 | 110 to 111 °C
O=C1CCCC(c2ccccc2)(c2ccccc2)N1 | 193 to 196 °C
CC12CCC(C(=Cc3ccc([N+](=O)[O-])cc3)C1=O)C2(C)C (centres undefined) | 158 °C
COc1cccc(CO)c1F | 53 to 57 °C
